From ChEMBL document CHEMBL1201861, “Genomics of Drug Sensitity in Cancer screening data, Wellcome Trust Sanger Institute”

Key:
Assay in all cases: cells
SW13 = assay type: functional, cell-based; details: Homo sapiens;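 further: IC50 is inhibition of SW13 cell growth, read out with a cell viability assay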
Description: SANGER: Inhibition of human SW13 cell growth in a cell viability assay.

MHH-ES-1 = assay type: functional, cell-based; details: Homo sapiens;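 further: cell growth inhibition measured by a cell viability assay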
Description: SANGER: Inhibition of human MHH-ES-1 cell growth in a cell viability assay.

BPH-1 = assay type: functional, cell-based; details: Homo sapiens;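 further: cell viability assay measuring growth inhibition of human BPH-1 cells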
Description: SANGER: Inhibition of human BPH-1 cell growth in a cell viability assay.

MDA-MB-157 = assay type: functional, cell-based; details: Homo sapiens
Description: SANGER: Inhibition of human MDA-MB-157 cell growth in a cell viability assay.

HuO9 = assay type: functional, cell-based; details: Homo sapiens;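 further: growth inhibition of HuO9 cells, read out with a cell viability assay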
Description: SANGER: Inhibition of human HuO9 cell growth in a cell viability assay.

S-117 = assay type: functional, cell-based; details: Homo sapiens
Description: SANGER: Inhibition of human S-117 cell growth in a cell viability assay.

UACC-62 = assay type: functional, cell-based; details: Homo sapiens;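 further: growth inhibition of human UACC-62 cells, read out by a cell viability assay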
Description: SANGER: Inhibition of human UACC-62 cell growth in a cell viability assay.

TE-441-T = assay type: functional, cell-based, Homo sapiens; details: Homo sapiens, TE-441-T
Description: SANGER: Inhibition of human TE-441-T cell growth in a cell viability assay.

NCI-H2122 = assay type: functional, cell-based; details: Homo sapiens;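 further: growth inhibition of the cells, read out with a cell viability assay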
Description: SANGER: Inhibition of human NCI-H2122 cell growth in a cell viability assay.

SW948 = assay type: functional, cell-based; details: Homo sapiens;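 further: growth inhibition of SW948 cells, read out with a cell viability assay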
Description: SANGER: Inhibition of human SW948 cell growth in a cell viability assay.

GCT = assay type: functional, cell-based; details: Homo sapiens;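 further: GCT cell line proliferation inhibition, read out with a cell viability assay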
Description: SANGER: Inhibition of human GCT cell growth in a cell viability assay.

HCC1599 = assay type: functional, cell-based, Homo sapiens; details: Homo sapiens, HCC1599;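 further: growth inhibition of HCC1599 cells, read out in a cell viability assay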
Description: SANGER: Inhibition of human HCC1599 cell growth in a cell viability assay.

HCC1569 = assay type: functional, cell-based; details: Homo sapiens;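 further: growth inhibition of human HCC1569 cells, read out with a cell viability assay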
Description: SANGER: Inhibition of human HCC1569 cell growth in a cell viability assay.

TE-15 = assay type: functional, cell-based, Homo sapiens; details: Homo sapiens, TE-15;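 further: cell viability readout of growth inhibition in TE-15 cells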
Description: SANGER: Inhibition of human TE-15 cell growth in a cell viability assay.

NCI-H292 = assay type: functional, cell-based; details: Homo sapiens;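 further: growth inhibition of NCI-H292 cells, read out with a cell viability assay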
Description: SANGER: Inhibition of human NCI-H292 cell growth in a cell viability assay.

JIYOYE = assay type: functional, cell-based, Homo sapiens; details: Homo sapiens, JIYOYE
Description: SANGER: Inhibition of human JiyoyeP-2003 cell growth in a cell viability assay.

MKN-45 = assay type: functional, cell-based; details: Homo sapiens;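 further: growth inhibition of human MKN-45 cells, measured with a cell viability assay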
Description: SANGER: Inhibition of human MKN45 cell growth in a cell viability assay.

SW1990 = assay type: functional, cell-based; details: Homo sapiens;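 further: cell growth inhibition determined with a viability assay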
Description: SANGER: Inhibition of human SW1990 cell growth in a cell viability assay.

KU-19-19 = assay type: functional, cell-based; details: Homo sapiens
Description: SANGER: Inhibition of human KU-19-19 cell growth in a cell viability assay.

HSC-3 = assay type: functional, cell-based; details: Homo sapiens
Description: SANGER: Inhibition of human HSC-3 cell growth in a cell viability assay.

AU565 = assay type: functional, cell-based; details: Homo sapiens;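 further: cell viability assay measuring growth inhibition of human AU565 cells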
Description: SANGER: Inhibition of human AU565 cell growth in a cell viability assay.

SK-MEL-24 = assay type: functional, cell-based; details: Homo sapiens;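 further: growth inhibition read out by a cell viability assay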
Description: SANGER: Inhibition of human SK-MEL-24 cell growth in a cell viability assay.

HuO-3N1 = assay type: functional, cell-based; details: Homo sapiens;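 further: cell viability readout used to measure how strongly compounds suppress proliferation of human HuO-3N1 cells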
Description: SANGER: Inhibition of human HuO-3N1 cell growth in a cell viability assay.

SCC-3 = assay type: functional, cell-based, Homo sapiens; details: Homo sapiens, SCC-3;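 further: cell viability assay measuring inhibition of SCC-3 cell growth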
Description: SANGER: Inhibition of human SCC-3 cell growth in a cell viability assay.

TALL-1 = assay type: functional, cell-based, Homo sapiens; details: Homo sapiens, TALL-1;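 further: growth inhibition of cultured human TALL-1 cells, read out by a cell viability assay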
Description: SANGER: Inhibition of human TALL-1 cell growth in a cell viability assay.

DBTRG-05MG = assay type: functional, cell-based; details: Homo sapiens;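 further: cell viability assay measuring growth inhibition of human DBTRG-05MG cells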
Description: SANGER: Inhibition of human DBTRG-05MG cell growth in a cell viability assay.

CHP-212 = assay type: functional, cell-based; details: Homo sapiens
Description: SANGER: Inhibition of human CHP-212 cell growth in a cell viability assay.

GDM-1 = assay type: functional, cell-based, Homo sapiens; details: Homo sapiens, GDM-1; read-out: IC50;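 further: cell viability readout used to measure growth inhibition of human GDM-1 cells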
Description: SANGER: Inhibition of human GDM-1 cell growth in a cell viability assay.

RPMI-6666 = assay type: functional, cell-based, Homo sapiens; details: Homo sapiens, RPMI-6666
Description: SANGER: Inhibition of human RPMI-6666 cell growth in a cell viability assay.

MIA PaCa-2 = assay type: functional, cell-based; details: Homo sapiens;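 further: growth inhibition of MIA PaCa-2 cells, read out with a cell viability assay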
Description: SANGER: Inhibition of human MIA-PaCa-2 cell growth in a cell viability assay.

UMC-11 = assay type: functional, cell-based; details: Homo sapiens;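 further: growth inhibition of UMC-11 cells, read out with a cell viability assay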
Description: SANGER: Inhibition of human UMC-11 cell growth in a cell viability assay.

A2780 = assay type: functional, cell-based; details: Homo sapiens;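 further: growth inhibition of A2780 cells, read out with a cell viability assay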
Description: SANGER: Inhibition of human A2780 cell growth in a cell viability assay.

NCI-H520 = assay type: functional, cell-based; details: Homo sapiens;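 further: growth inhibition of NCI-H520 cells, measured by a cell viability assay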
Description: SANGER: Inhibition of human NCI-H520 cell growth in a cell viability assay.

IGR-1 = assay type: functional, cell-based; details: Homo sapiens;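 further: growth inhibition of human IGR-1 cells, read out with a cell viability assay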
Description: SANGER: Inhibition of human IGR-1 cell growth in a cell viability assay.

NCI-H2347 = assay type: functional, cell-based; details: Homo sapiens;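 further: growth inhibition of the cell line, read out with a cell viability assay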
Description: SANGER: Inhibition of human NCI-H2347 cell growth in a cell viability assay.

OVCAR-3 = assay type: functional, cell-based; details: Homo sapiens;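 further: growth inhibition of human OVCAR-3 cells, determined by a cell viability assay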
Description: SANGER: Inhibition of human OVCAR-3 cell growth in a cell viability assay.

H4 = assay type: functional, cell-based; details: Homo sapiens
Description: SANGER: Inhibition of human H4 cell growth in a cell viability assay.

UO-31 = assay type: functional, cell-based; details: Homo sapiens;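 further: cell viability assay measuring inhibition of cell growth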
Description: SANGER: Inhibition of human U031 cell growth in a cell viability assay.

CAL-148 = assay type: functional, cell-based, Homo sapiens; details: Homo sapiens, CAL-148
Description: SANGER: Inhibition of human CAL-148 cell growth in a cell viability assay.

COLO-792 = assay type: functional, cell-based; details: Homo sapiens
Description: SANGER: Inhibition of human COLO-792 cell growth in a cell viability assay.

786-0 = assay type: functional, cell-based; details: Homo sapiens
Description: SANGER: Inhibition of human 786-0 cell growth in a cell viability assay.

SiHa = assay type: functional, cell-based; details: Homo sapiens;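 further: Viability-based readout of growth inhibition in SiHa cells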
Description: SANGER: Inhibition of human SiHa cell growth in a cell viability assay.

KYSE-450 = assay type: functional, cell-based; details: Homo sapiens;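 further: cell growth inhibition measured by a viability assay in human KYSE-450 cells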
Description: SANGER: Inhibition of human KYSE-450 cell growth in a cell viability assay.

LU-165 = assay type: functional, cell-based, Homo sapiens; details: Homo sapiens, LU-165
Description: SANGER: Inhibition of human LU-165 cell growth in a cell viability assay.

P12-Ichikawa = assay type: functional, cell-based; details: Homo sapiens
ECC4 = assay type: functional, cell-based, Homo sapiens; details: Homo sapiens, ECC4;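 further: growth inhibition of ECC4 cells, read out with a cell viability assay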
Description: SANGER: Inhibition of human ECC4 cell growth in a cell viability assay.

SNU-16 = assay type: functional, cell-based, Homo sapiens; details: Homo sapiens, SNU-16;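 further: growth inhibition of human SNU-16 cells, determined with a cell viability readout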
Description: SANGER: Inhibition of human NCI-SNU-16 cell growth in a cell viability assay.

NCI-H716 = assay type: functional, cell-based, Homo sapiens; details: Homo sapiens, NCI-H716;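 further: growth inhibition of human NCI-H716 cells, measured by a cell viability assay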
Description: SANGER: Inhibition of human NCI-H716 cell growth in a cell viability assay.

MDA-MB-415 = assay type: functional, cell-based; details: Homo sapiens
SUP-T1 = assay type: functional, cell-based, Homo sapiens; details: Homo sapiens, SUP-T1;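 further: growth inhibition of human SUP-T1 cells, read out as cell viability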
Description: SANGER: Inhibition of human SUP-T1 cell growth in a cell viability assay.

CAL-54 = assay type: functional, cell-based; details: Homo sapiens;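 further: growth inhibition of CAL-54 cells, read out by a viability measurement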
Description: SANGER: Inhibition of human CAL-54 cell growth in a cell viability assay.

RO82-W-1 = assay type: functional, cell-based; details: Homo sapiens;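 further: growth inhibition of human RO82-W-1 cells, measured with a cell viability assay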
Description: SANGER: Inhibition of human RO82-W-1 cell growth in a cell viability assay.

SCC-25 = assay type: functional, cell-based; details: Homo sapiens;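 further: growth inhibition of SCC-25 cells, measured with a cell viability assay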
Description: SANGER: Inhibition of human SCC-25 cell growth in a cell viability assay.

KYSE-180 = assay type: functional, cell-based; details: Homo sapiens;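 further: growth inhibition of KYSE-180 cells, read out with a cell viability assay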
Description: SANGER: Inhibition of human KYSE-180 cell growth in a cell viability assay.

D-392MG = assay type: functional, cell-based; details: Homo sapiens
P31-FUJ = assay type: functional, cell-based, Homo sapiens; details: Homo sapiens, P31-FUJ;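 further: growth inhibition of P31-FUJ cells, read out with a viability assay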
Description: SANGER: Inhibition of human P31-FUJ cell growth in a cell viability assay.

CAL-85-1 = assay type: functional, cell-based; details: Homo sapiens;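 further: growth inhibition of human CAL-85-1 cells, read out with a cell viability assay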
Description: SANGER: Inhibition of human CAL-85-1 cell growth in a cell viability assay.

SIG-M5 = assay type: functional, cell-based, Homo sapiens; details: Homo sapiens, SIG-M5;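 further: cell viability assay read-out, measuring how strongly growth of cultured human SIG-M5 cells is inhibited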
Description: SANGER: Inhibition of human SIG-M5 cell growth in a cell viability assay.

NB14 = assay type: functional, cell-based, Homo sapiens; details: Homo sapiens, NB14;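 further: growth inhibition of NB14 cells measured with a cell viability assay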
Description: SANGER: Inhibition of human NB14 cell growth in a cell viability assay.

Measured: IC50

COC(=O)[C@H](CCSC)NC(=O)c1ccc(NC[C@@H](N)CS)cc1-c1ccccc1
not listed: NB14
> 1020 nM: all other assays above

Cc1ccc(C(=O)Nc2ccc(CN3CCN(C)CC3)c(C(F)(F)F)c2)cc1C#Cc1cnc2cccnn12 [PONATINIB]
381 nM: DBTRG-05MG
425 nM: H4
232 nM: D-392MG
99.8 nM: SUP-T1
134 nM: SIG-M5
261 nM: TE-15
163 nM: NCI-H716
269 nM: KYSE-180
262 nM: 786-0
343 nM: A2780
273 nM: KYSE-450
18.3 nM: GDM-1
179 nM: CAL-85-1
398 nM: SK-MEL-24
177 nM: NCI-H520
54.5 nM: HuO9
not listed: NB14
> 512 nM: all other assays above

CC1=C(/C=C/C(C)=C/C=C/C(C)=C/C(=O)O)C(C)(C)CCC1 [TRETINOIN]
6700 nM: KYSE-180
7130 nM: NB14
832 nM: HuO-3N1
7440 nM: BPH-1
not listed: TE-441-T | HCC1599 | TE-15 | JIYOYE | SCC-3 | TALL-1 | GDM-1 | RPMI-6666 | CAL-148 | LU-165 | ECC4 | SNU-16 | NCI-H716 | SUP-T1 | P31-FUJ | SIG-M5
> 10000 nM: all other assays above
